A short description of data set [1]: Cytotoxicity against Wistar rat CC1 cells assessed as cell viability at 1 to 20 ug/ml after 48 hrs by MTT assay. The format is cell-based. The note with it: cc-1, 48 h. Background: Formazan colour is commonly taken as a measure of viable cells.
Data set [2] deals with Cholinesterase (Equus caballus) (UniProt P81908). The experiment in a line: Inhibition of equine serum butyrylcholinesterase using […] as substrate preincubated for 15 mins followed by substrate addition measured every 1 min by Ellman's method.
Chain of Cholinesterase (Equus caballus) (P81908 whole entry): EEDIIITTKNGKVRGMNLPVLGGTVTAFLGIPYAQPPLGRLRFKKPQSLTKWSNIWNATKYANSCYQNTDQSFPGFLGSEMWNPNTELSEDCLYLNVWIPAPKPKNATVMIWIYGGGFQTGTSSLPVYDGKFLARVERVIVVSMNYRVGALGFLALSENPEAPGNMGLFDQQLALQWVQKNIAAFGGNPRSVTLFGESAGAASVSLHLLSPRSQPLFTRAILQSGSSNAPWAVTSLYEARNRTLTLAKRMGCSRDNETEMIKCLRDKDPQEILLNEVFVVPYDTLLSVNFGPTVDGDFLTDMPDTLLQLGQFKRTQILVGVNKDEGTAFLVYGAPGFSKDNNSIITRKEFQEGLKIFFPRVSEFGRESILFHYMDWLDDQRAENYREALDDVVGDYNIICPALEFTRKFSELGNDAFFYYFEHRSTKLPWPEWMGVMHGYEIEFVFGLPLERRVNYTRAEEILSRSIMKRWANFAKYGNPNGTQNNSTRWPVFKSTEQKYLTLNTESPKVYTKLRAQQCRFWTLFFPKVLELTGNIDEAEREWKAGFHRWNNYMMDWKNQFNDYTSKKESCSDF
Data set [3] concerns Serpentes. The experiment in a line: Inhibition of snake venom NPP1 using bis(p-nitrophenyl)phosphate as substrate assessed as p-nitrophenol release preincubated for 30 mins by spectrophotometry.
For data set [4], the target named is Urease (Canavalia ensiformis, UniProt P07374). The experiment in a line: Inhibition of jack bean urease using urea as substrate assessed as ammonia production incubated for 15 mins by indophenol method.
Chain of Urease (P07374 whole entry): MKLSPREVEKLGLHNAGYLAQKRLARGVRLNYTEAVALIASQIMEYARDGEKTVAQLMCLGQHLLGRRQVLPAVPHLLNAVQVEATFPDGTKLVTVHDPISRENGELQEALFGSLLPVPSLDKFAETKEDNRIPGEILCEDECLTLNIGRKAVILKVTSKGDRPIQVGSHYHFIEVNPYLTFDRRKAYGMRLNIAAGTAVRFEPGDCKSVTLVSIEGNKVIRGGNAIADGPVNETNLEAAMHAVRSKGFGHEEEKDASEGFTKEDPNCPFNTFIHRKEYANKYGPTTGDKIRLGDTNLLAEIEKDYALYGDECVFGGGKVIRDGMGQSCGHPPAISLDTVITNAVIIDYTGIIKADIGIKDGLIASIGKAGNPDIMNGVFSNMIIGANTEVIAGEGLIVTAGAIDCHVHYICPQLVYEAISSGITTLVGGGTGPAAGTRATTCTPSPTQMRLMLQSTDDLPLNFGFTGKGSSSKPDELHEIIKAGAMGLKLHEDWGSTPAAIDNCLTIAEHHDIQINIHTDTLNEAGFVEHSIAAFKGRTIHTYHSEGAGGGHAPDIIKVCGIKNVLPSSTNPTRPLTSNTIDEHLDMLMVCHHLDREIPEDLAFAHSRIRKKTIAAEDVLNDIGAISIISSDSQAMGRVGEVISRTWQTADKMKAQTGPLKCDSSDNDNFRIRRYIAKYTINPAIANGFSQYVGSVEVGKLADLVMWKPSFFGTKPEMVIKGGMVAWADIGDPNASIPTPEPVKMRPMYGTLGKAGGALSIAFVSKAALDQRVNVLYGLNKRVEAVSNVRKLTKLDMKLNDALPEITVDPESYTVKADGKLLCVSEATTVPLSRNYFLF
A short description of data set [5]: Cytotoxicity against mouse 3T3L1 cells assessed as cell viability at 1 to 20 ug/ml after 48 hrs by MTT assay. The format is cell-based. The note with it: 3t3-l1, 48 h.
The target of data set [6] is Carbonic anhydrase (Homo sapiens) (UniProt P00918+P43166+P00915+P07451+P23280+O43570+Q9ULX7+Q16790+P22748+Q8N1Q1+Q9Y2D0+P35218). The experiment in a line: Inhibition of carbonic anhydrase (unknown origin). The data set is classed as protein assay.

The structures appear in SMILES notation. Calls of active or inactive are those of the source. The calls are words filed in the database; no cut-off is given here.

What is called IC50 is the concentration at which inhibition is half-maximal. Turning to `Fc1ccc(NC(=S)Nc2ccccc2SSc2ccccc2NC(=S)Nc2ccc(F)cc2)cc1`, the Activity entry in data set [1] and in data set [5] was “Non-toxic” throughout. Besides, the inhibition entry in data set [2], in data set [3] and in data set [6] was “inactive” in each case. In addition, the IC50 in data set [4] came out at 0.4 µM.

On to `S=C(Nc1cccc(Br)c1)Nc1ccccc1SSc1ccccc1NC(=S)Nc1cccc(Br)c1`, for which the Activity entry in data set [1] and in data set [5] was “Non-toxic” throughout. Moreover, the inhibition entry in data set [2], in data set [3] and in data set [6] was “inactive” in each case. Besides, the half-maximal inhibitory concentration (IC50) in data set [4] is 10.3 µM.

Take `Fc1ccccc1NC(=S)Nc1ccccc1SSc1ccccc1NC(=S)Nc1ccccc1F`: the Activity entry in data set [1] and in data set [5] was “Non-toxic” each time. Moreover, the inhibition result in data set [2], in data set [3] and in data set [6] was “inactive” each time. Besides, in data set [4], the half-inhibitory concentration (IC50) is 0.7 µM.

As for `S=C(Nc1ccc(Cl)c(Cl)c1)Nc1ccccc1SSc1ccccc1NC(=S)Nc1ccc(Cl)c(Cl)c1`, the Activity result in data set [1] and in data set [5] was “Non-toxic” each time. Moreover, the inhibition result in data set [2], in data set [3] and in data set [6] was “inactive” each time. Also, the concentration for half-maximal inhibition (IC50) in data set [4] stood at 3.2 µM.

With `Cc1ccc(NC(=S)Nc2ccccc2SSc2ccccc2NC(=S)Nc2ccc(C)cc2)cc1`, the Activity result in data set [1] and in data set [5] was “Non-toxic” throughout. Besides, the inhibition result in data set [2], in data set [3] and in data set [6] was “inactive” in each case. Also, the IC50 in data set [4] was determined as 1.4 µM.

For `Cc1ccccc1NC(=S)Nc1ccccc1SSc1ccccc1NC(=S)Nc1ccccc1C`, the Activity entry in data set [1] and in data set [5] was “Non-toxic” in each case. Also, the inhibition result in data set [2], in data set [3] and in data set [6] was “inactive” in each case. Moreover, the half-maximal inhibitory concentration (IC50) in data set [4] stood at 1.1 µM.

As to `COc1cccc(NC(=S)Nc2ccccc2SSc2ccccc2NC(=S)Nc2cccc(OC)c2)c1`, the Activity result in data set [1] and in data set [5] was “Non-toxic” throughout. Also, the inhibition entry in data set [2], in data set [3] and in data set [6] was “inactive” each time. Also, the IC50 in data set [4] worked out at 14.6 µM.

Turning to `S=C(Nc1ccc(Br)cc1)Nc1ccccc1SSc1ccccc1NC(=S)Nc1ccc(Br)cc1`, the Activity entry in data set [1] and in data set [5] was “Non-toxic” throughout. For the same compound, the inhibition result in data set [2], in data set [3] and in data set [6] was “inactive” in each case. Also, the IC50 in data set [4] was 4.3 µM.

In the case of `FC(F)(F)c1ccc(NC(=S)Nc2ccccc2SSc2ccccc2NC(=S)Nc2ccc(C(F)(F)F)cc2)cc1`, the Activity result in data set [1] and in data set [5] was “Non-toxic” each time. Moreover, the inhibition result in data set [2], in data set [3] and in data set [6] was “inactive” throughout. Also, the IC50 in data set [4] is 1.5 µM.

Take `COc1ccc(NC(=S)Nc2ccccc2SSc2ccccc2NC(=S)Nc2ccc(OC)cc2)cc1`: the Activity result in data set [1] and in data set [5] was “Non-toxic” in each case. The inhibition entry in data set [2], in data set [3] and in data set [6] was “inactive” each time. The IC50 in data set [4] was determined as 4.2 µM.

For `O=[N+]([O-])c1cccc(NC(=S)Nc2ccccc2SSc2ccccc2NC(=S)Nc2cccc([N+](=O)[O-])c2)c1`, the Activity result in data set [1] and in data set [5] was “Non-toxic” throughout. The inhibition entry in data set [2], in data set [3] and in data set [6] was “inactive” each time. Besides, in data set [4], the IC50 was 12.3 µM.

As for `S=C(Nc1ccccc1Br)Nc1ccccc1SSc1ccccc1NC(=S)Nc1ccccc1Br`, the Activity result in data set [1] and in data set [5] was “Non-toxic” in each case. For the same compound, the inhibition result in data set [2], in data set [3] and in data set [6] was “inactive” throughout. Besides, the IC50 in data set [4] is 18.6 µM.

Take `S=C(Nc1ccccc1SSc1ccccc1NC(=S)NC12CC3CC(CC(C3)C1)C2)NC12CC3CC(CC(C3)C1)C2`: the Activity entry in data set [1] and in data set [5] was “Non-toxic” each time. The inhibition result in data set [2], in data set [3] and in data set [6] was “inactive” in each case. The IC50 in data set [4] was 17.6 µM.

Regarding `S=C(Nc1ccccc1)Nc1ccccc1SSc1ccccc1NC(=S)Nc1ccccc1`, the Activity entry in data set [1] and in data set [5] was “Non-toxic” each time. Moreover, the inhibition entry in data set [2], in data set [3] and in data set [6] was “inactive” in each case. Besides, the IC50 in data set [4] amounted to 15.1 µM.

As to `S=C(Nc1ccc(Cl)cc1)Nc1ccccc1SSc1ccccc1NC(=S)Nc1ccc(Cl)cc1`, the Activity result in data set [1] and in data set [5] was “Non-toxic” in each case. Further, the inhibition entry in data set [2], in data set [3] and in data set [6] was “inactive” each time. In addition, the half-inhibitory concentration (IC50) in data set [4] came out at 1.6 µM.

Regarding `NC(N)=S` [THIOUREA], the IC50 in data set [4] turned out to be 19.5 µM.

Turning to `COc1ccccc1NC(=S)Nc1ccccc1SSc1ccccc1NC(=S)Nc1ccccc1OC`, the Activity entry in data set [1] and in data set [5] was “Non-toxic” each time. Further, the inhibition entry in data set [2], in data set [3] and in data set [6] was “inactive” in each case. In addition, the half-inhibitory concentration (IC50) in data set [4] was 1.7 µM.

As for `Fc1cccc(NC(=S)Nc2ccccc2SSc2ccccc2NC(=S)Nc2cccc(F)c2)c1`, the Activity entry in data set [1] and in data set [5] was “Non-toxic” in each case. The inhibition result in data set [2], in data set [3] and in data set [6] was “inactive” throughout. Besides, the IC50 in data set [4] stood at 1.5 µM.

With `O=[N+]([O-])c1ccc(NC(=S)Nc2ccccc2SSc2ccccc2NC(=S)Nc2ccc([N+](=O)[O-])cc2)cc1`, the Activity entry in data set [1] and in data set [5] was “Non-toxic” each time. The inhibition entry in data set [2], in data set [3] and in data set [6] was “inactive” in each case. Further, the IC50 in data set [4] turned out to be 6.4 µM.

On to `S=C(Nc1ccccc1Cl)Nc1ccccc1SSc1ccccc1NC(=S)Nc1ccccc1Cl`, for which the Activity entry in data set [1] and in data set [5] was “Non-toxic” throughout. The inhibition result in data set [2], in data set [3] and in data set [6] was “inactive” in each case. The concentration for half-maximal inhibition (IC50) in data set [4] was determined as 3.4 µM.

As to `Cc1cccc(NC(=S)Nc2ccccc2SSc2ccccc2NC(=S)Nc2cccc(C)c2)c1`, the Activity result in data set [1] and in data set [5] was “Non-toxic” throughout. The inhibition result in data set [2], in data set [3] and in data set [6] was “inactive” in each case. The 50% inhibitory concentration (IC50) in data set [4] was found to be 3.7 µM.
